From patent publication US20250368932A1, “SYSTEM FOR MIMICKING CELLULAR MICROENVIRONMENT AND METHOD FOR EVALUATING CELL DEVELOPMENT OR DRUG THERAPY EFFECTIVENESS USING THE SAME” (Anivance AI Corporation, priority 2024, published 2025)

Key:
[1] = tested on: Non-Small Cell Lung Cancer Tumor Spheroids (co-cultured cell spheroids, A549 / HFL-1); assay: Morphology and area of tumor spheroids after drug administration on the chip (bright-field, quantified); format: cell-based, human
Method: In some embodiments, the A549 cell line of the present disclosure is purchased from ATCC, and is commonly used for developing lung cancer drugs and drug delivery experiments. The A549 cells are cultured in F12K cell culture medium (10-025, Corning) supplemented with 10% fetal bovine serum (FBS) (35-076-EV, Corning). The cells are taken out from the liquid nitrogen tank and thawed in a […] water bath. The cell suspension in the cryovial is extracted and mixed with 1 mL of cell culture medium, followed by adding it to a T-75 cell culture flask containing 9 mL of cell culture medium for uniform mixing and culture. When cell confluence reaches 80%, cell passaging is carried out. Cells are first rinsed with DPBS and then detached from the T-75 cell culture flask using trypsin. The detached A549 cells are transferred to a 15 mL centrifuge tube, and centrifuged at 1000 rpm for 5 minutes at 24° C. After centrifugation, the cells are concentrated at the bottom of the centrifuge tube, and the supernatant is aspirated. Subsequently, 500 μL of cell culture medium is added, mixed thoroughly, and the cells are resuspended. A 20 μL cell suspension is then withdrawn, and the cell count is determined using an automatic cell counter, which is used to estimate the total number of cells in the centrifuge tube. The estimated number of cells is then seeded back into the T-75 cell culture flask.
In some embodiments, the HFL-1 cell line of the present disclosure is purchased from BCRC, and is commonly used for co-culture and cytotoxicity studies. The cells are cultured in F12K cell culture medium (10-025, Corning) supplemented with 10% fetal bovine serum (FBS) (35-076-EV, Corning). The cells are removed from the liquid nitrogen tank and thawed in a 37° C. water bath. […] A 20 μL cell suspension is then withdrawn, and the cell count is determined using an automatic cell counter to estimate the total number of cells in the centrifuge tube. […]

cell spheroids (A549) = assay: Effect of TGF-β on spreading and metastasis of cell spheroids cultured on the hydrogel; format: cell-based, human
Method: In some embodiments, the present disclosure uses Ultra-Low Attachment (ULA) 96-well plates (7007, Corning) to conduct in vitro 3D cell spheroid cultures. The ULA 96-well plates feature an extremely low attachment surface that minimizes cell adhesion and protein absorption, facilitating the formation of cell spheroids. In each well of the ULA 96-well plate, 1000 to 8000 cells (with each well containing 200 μL of cell culture medium) are added, and the morphological changes of the cells are observed. After four days of cell seeding, compact cell spheroids are formed.
In some embodiments, before seeding cell spheroids, the chip is irradiated with ultraviolet (UV) light for 30 minutes and washed with filtered 75% alcohol, 95% alcohol, and deionized water, respectively. […]
In some embodiments, Image-J software is used to perform quantitative analysis of the cell spheroid spreading area. […] The spreading area of cell spheroids is then quantitatively analyzed.
After culturing on the hydrogel for 48 hours, the development of the cell spheroids is observed using a fluorescence microscope. […] The original cell spheroids display red fluorescence indicating the expression of vimentin. […] “Top view” and “side view” refer to the respective perspectives, and the green fluorescence labels F-actin.

With `COc1cccc2c1C(=O)c1c(O)c3c(c(O)c1C2=O)C[C@@](O)(C(=O)CO)C[C@@H]3O[C@H]1C[C@H](N)[C@H](O)[C@H](C)O1` [Dox] the “shape of cell spheroids after drug treatment” value ([1]; Dox 0, 40, 90 and 320 μM, 48 hours, on chip, FIG. 10A/10B) was “maintain their original shape”, the “area of tumor spheroids (quantitative analysis)” value ([1]; Dox 0, 40, 90 and 320 μM, FIG. 10C/10D) was “no significant decrease” and the “therapeutic effect on static tumor spheroids (summary)” value ([1]; static tumor spheroids, single drug) was “no therapeutic effect”.
For transforming growth factor-beta [TGF-β], the “outward expansion and migration of cells in the cell spheroids (spreading area)” value (cell spheroids (A549); 20 ng/ml TGF-β, 48 hours on hydrogel, versus untreated, FIG. 3B/3C) was “increased outward expansion and migration range” and the “structure of cell spheroids” value (cell spheroids (A549); prolonged TGF-β treatment, FIG. 3D) was “disaggregate and expand outward”.
